T/C data for 14 molecules are collected here from PubChem BioAssay AID330 (DTP/NCI, 2004).

In the test the test system is P388 leukemia ip, CD2F1 mice, survival T/C. Nature of the test: NCI In Vivo Anticancer Drug Screen. Data for tumor model P388 Leukemia (intraperitoneal) in CD2F1 (CDF1) mice. The settings on record: endpoint: median survival time, higher = longer survival. In short, it runs like this:
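Mice carrying the transplanted tumor received test compound or vehicle. Survival was recorded in each group, and the value is the treated-group measurement divided by that of the vehicle-treated control group.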

Setting [1] is: dose: 60.0 mg/kg/injection, schedule: Q01DX005 (ip), vehicle: saline with Tween-80.
[2] abbreviates: dose: 120.0 mg/kg/injection, schedule: Q01DX005 (ip), vehicle: saline with Tween-80.
Where [3] appears, read: dose: 240.0 mg/kg/injection, schedule: Q01DX005 (ip), vehicle: saline with Tween-80.
Where [4] appears, read: dose: 50.0 mg/kg/injection, schedule: Q01DX009 (ip), vehicle: Klucel (hydroxypropylcellulose) (HPC).
[5] abbreviates: dose: 100.0 mg/kg/injection, schedule: Q01DX009 (ip), vehicle: Klucel (hydroxypropylcellulose) (HPC).
[6] abbreviates: dose: 200.0 mg/kg/injection, schedule: Q01DX009 (ip), vehicle: Klucel (hydroxypropylcellulose) (HPC).

Values joined by “and” are separate entries in the source; they are usually repeats but may differ in a detail not shown here. Identical values can stand only once. Toxic doses and inconclusive results are not listed. Bridge positions count the residues as written; N and C are the ends. Peptide text beside a SMILES is read from it. I, II: the chains in the order shown. * marks the point of attachment. Quinoxaline2carbonyl = O=C(c1cnc2ccccc2n1)*

On to `CCC12OCCN1CCO2`, for which the T/C was 100 % of control (dose: 200.0 mg/kg/injection, schedule: Q01DX009 (ip), vehicle: water); 100 % of control (dose: 400.0 mg/kg/injection, schedule: Q01DX009 (ip), vehicle: water); 102 % of control (dose: 800.0 mg/kg/injection, schedule: Q01DX009 (ip), vehicle: water); 106 % of control (dose: 1600.0 mg/kg/injection, schedule: Q01DX009 (ip), vehicle: water).
For the molecule `C/C(=C/C(=O)Nc1ccccc1)Nc1onc(C)c1C`, the T/C runs as follows: under setting [1], 102 % of control; under setting [2], 96 % of control; under setting [3], 90 % of control.
As for `Cc1cc(O)cc(O)c1C(=O)OC1CC2(C)C3CC(C)(C)CC3C=C(C=O)C12O` (stereo not drawn), the T/C reads like this: (dose: 1.5 mg/kg/injection, schedule: Q01DX005 (ip), vehicle: Klucel + Tween-80) 107 % of control; (dose: 3.0 mg/kg/injection, schedule: Q01DX005 (ip), vehicle: Klucel + Tween-80) 97 % of control; (dose: 6.0 mg/kg/injection, schedule: Q01DX005 (ip), vehicle: Klucel + Tween-80) 103 % of control; (dose: 12.0 mg/kg/injection, schedule: Q01DX005 (ip), vehicle: Klucel + Tween-80) 99 % of control.
With `CO[C@H]1Nc2c(ccc(C)c2O)C(=O)N2C=C(/C=C/C(N)=O)C[C@@H]12`, the T/C is 106 % of control (dose: 0.05 mg/kg/injection, schedule: Q04DX003 (ip), vehicle: DMSO); 122 % of control (dose: 0.05 mg/kg/injection, schedule: Q04DX003 (ip), vehicle: saline); 112 % of control (dose: 0.1 mg/kg/injection, schedule: Q04DX003 (ip), vehicle: DMSO); 152 % of control (dose: 0.13 mg/kg/injection, schedule: Q04DX003 (ip), vehicle: saline + alcohol); 118 % of control (dose: 0.2 mg/kg/injection, schedule: Q04DX003 (ip), vehicle: DMSO); 122 % of control (dose: 0.2 mg/kg/injection, schedule: Q04DX003 (ip), vehicle: saline). Besides, the T/C is 153 % of control and 161 % of control (2×) (dose: 0.22 mg/kg/injection, schedule: Q04DX003 (ip), vehicle: saline + alcohol); 155 % of control (dose: 0.4 mg/kg/injection, schedule: Q04DX003 (ip), vehicle: saline); 185 % of control (dose: 0.6 mg/kg/injection, schedule: Q04DX003 (ip), vehicle: saline + alcohol); 110 % of control (dose: 0.8 mg/kg/injection, schedule: Q04DX003 (ip), vehicle: saline); 150 % of control (dose: 200.0 micrograms/kg/injection, schedule: Q01DX009 (ip), vehicle: saline); 165 % of control (dose: 200.0 micrograms/kg/injection, schedule: Q04DX003 (ip), vehicle: saline with Tween-80).
For `O=c1ccc2cc3ccoc3c(OCCCCCCBr)c2o1`, the T/C runs as follows: (dose: 100.0 mg/kg/injection, schedule: Q04DX002 (ip), vehicle: Klucel (hydroxypropylcellulose) (HPC)) 91 % of control; (dose: 200.0 mg/kg/injection, schedule: Q04DX002 (ip), vehicle: Klucel (hydroxypropylcellulose) (HPC)) 99 % of control; (dose: 400.0 mg/kg/injection, schedule: Q04DX002 (ip), vehicle: Klucel (hydroxypropylcellulose) (HPC)) 98 % of control.
For `O=NN(Cc1ccc(Cl)cc1)NC1=NCCN1`, the T/C runs as follows: under setting [4], 98 % of control; under setting [5], 99 % of control; under setting [6], 105 % of control.
Take `NNc1nncc2c1[nH]c1ccccc12`: the T/C is 102 % of control (dose: 1.56 mg/kg/injection, schedule: Q01DX001 (ip), vehicle: saline with Tween-80); 102 % of control (dose: 3.12 mg/kg/injection, schedule: Q01DX001 (ip), vehicle: saline with Tween-80); 105 % of control (dose: 6.25 mg/kg/injection, schedule: Q01DX001 (ip), vehicle: saline with Tween-80); 103 % of control (dose: 12.5 mg/kg/injection, schedule: Q01DX001 (ip), vehicle: saline with Tween-80).
For `CCN(CC)c1ccc(/C=C2/C=Cc3ccccc32)cc1`, the T/C reads like this: (dose: 100.0 mg/kg/injection, schedule: Q01DX009 (ip), vehicle: saline with Tween-80) 105 % of control; (dose: 200.0 mg/kg/injection, schedule: Q01DX009 (ip), vehicle: saline with Tween-80) 100 % of control; (dose: 400.0 mg/kg/injection, schedule: Q01DX009 (ip), vehicle: saline with Tween-80) 95 % of control.
With `CC(=O)OC1CN(c2ccc(Br)cc2)CC(OC(C)=O)CN(c2ccc(Br)cc2)C1` (stereo not drawn), the T/C by setting is: under setting [4], 99 % of control; under setting [5], 100 % of control; under setting [6], 97 % of control.
For `N#[N+]c1ccc2c(S(=O)(=O)Oc3ccc(C(=O)c4ccccc4)c(OS(=O)(=O)c4cccc5c([O-])c([N+]#N)ccc45)c3)cccc2c1[O-]`, the T/C runs as follows: (dose: 12.5 mg/kg/injection, schedule: Q01DX005 (ip), vehicle: saline with Tween-80) 110 % of control; (dose: 25.0 mg/kg/injection, schedule: Q01DX005 (ip), vehicle: saline with Tween-80) 107 % of control; (dose: 50.0 mg/kg/injection, schedule: Q01DX005 (ip), vehicle: saline with Tween-80) 105 % of control and 107 % of control.
`FC(F)(F)c1ccccc1Nc1nnc(-c2ccc(Cl)cc2Cl)o1`: the T/C is 100 % of control under setting [1], 96 % of control under setting [2] and 87 % of control under setting [3].
As for `CC(=O)NN`, the T/C reads like this: (dose: 50.0 mg/kg/injection, schedule: Q01DX009 (ip), vehicle: saline with Tween-80) 104 % of control; (dose: 50.0 mg/kg/injection, schedule: Q04DX003 (ip), vehicle: saline) 105 % of control; (dose: 100.0 mg/kg/injection, schedule: Q04DX003 (ip), vehicle: saline) 100 % of control; (dose: 200.0 mg/kg/injection, schedule: Q04DX003 (ip), vehicle: saline) 100 % of control.
As for `CCCCCCCC(=O)NC1CC(O[C@H]2C[C@](O)(C(C)=O)Cc3c(O)c4c(c(O)c32)C(=O)c2c(OC)cccc2C4=O)OC(C)C1O` (stereo partly drawn), the T/C runs as follows: (dose: 0.75 mg/kg/injection, schedule: Q01DX009 (ip), vehicle: other) 113 % of control; (dose: 2.0 mg/kg/injection, schedule: Q04DX003 (ip), vehicle: other) 107 % of control; (dose: 4.0 mg/kg/injection, schedule: Q04DX003 (ip), vehicle: other) 98 % of control; (dose: 8.0 mg/kg/injection, schedule: Q04DX003 (ip), vehicle: other) 102 % of control; (dose: 16.0 mg/kg/injection, schedule: Q04DX003 (ip), vehicle: other) 105 % of control; (dose: 32.0 mg/kg/injection, schedule: Q04DX003 (ip), vehicle: other) 116 % of control and 96 % of control. The T/C is 118 % of control (dose: 50.0 mg/kg/injection, schedule: Q04DX003 (ip), vehicle: other); 114 % of control (dose: 64.0 mg/kg/injection, schedule: Q04DX003 (ip), vehicle: other); 105 % of control (dose: 100.0 mg/kg/injection, schedule: Q04DX003 (ip), vehicle: other); 123 % of control (dose: 128.0 mg/kg/injection, schedule: Q04DX003 (ip), vehicle: other); 123 % of control (dose: 256.0 mg/kg/injection, schedule: Q04DX003 (ip), vehicle: other); 115 % of control (dose: 400.0 mg/kg/injection, schedule: Q04DX003 (ip), vehicle: other).
On to `CC1NC(=O)C(NC(=O)c2cnc3ccccc3n2)COC(=O)C(C(C)C)NC(=O)C2CSSCC(NC1=O)C(=O)NC(C(C)C)C(=O)OCC(NC(=O)c1cnc3ccccc3n1)C(=O)NC(C)C(=O)N2` (stereo not drawn) (I: Quinoxaline2carbonyl-SACV / II: Quinoxaline2carbonyl-SACV; ester I:1-II:C, I:C-II:1; disulfide I:3-II:3; configuration not given here), for which the T/C (dose: 1.25 mg/kg/injection, schedule: Q01DX005 (ip), vehicle: Klucel (hydroxypropylcellulose) (HPC)) was 96 % of control; the T/C (dose: 2.5 mg/kg/injection, schedule: Q01DX005 (ip), vehicle: Klucel (hydroxypropylcellulose) (HPC)) is 98 % of control; the T/C (dose: 5.0 mg/kg/injection, schedule: Q01DX005 (ip), vehicle: Klucel (hydroxypropylcellulose) (HPC)) was 95 % of control; the T/C (dose: 10.0 mg/kg/injection, schedule: Q01DX005 (ip), vehicle: Klucel (hydroxypropylcellulose) (HPC)) is 90 % of control; the T/C (dose: 20.0 mg/kg/injection, schedule: Q01DX005 (ip), vehicle: Klucel (hydroxypropylcellulose) (HPC)) was 95 % of control; the T/C (dose: 40.0 mg/kg/injection, schedule: Q01DX005 (ip), vehicle: Klucel (hydroxypropylcellulose) (HPC)) was 93 % of control. Also, the T/C (dose: 60.0 mg/kg/injection, schedule: Q01DX005 (ip), vehicle: Klucel (hydroxypropylcellulose) (HPC)) was 95 % of control.
